In patent US11414403B2, “Antibacterial compound and uses of same” (BIOMÉRIEUX, priority 2017, dated 2022):
In brackets after ≈: the same amount, converted by molar mass.

Columns and labels:
Test in all cases: MIC by agar dilution method
Format in all cases: cell-based
[1] = tested on: Yersinia enterocolitica NCTC 11176
Procedure: (§1) The minimum inhibitory concentrations (MICs) of L-pyroglutamyl-L-1-aminoethyltetrazole (12) for 13 Gram-negative strains of bacteria and 8 Gram-positive strains of bacteria were determined using an agar dilution method described by Andrews J M. 2001 (“Determination of minimum inhibitory concentrations[…]; J. Antimicrob. Chemother. (2001) 48 Suppl. 1:5-16). Said method required the use of a defined antagonist-free medium (without peptone), prepared in the way previously described with the inclusion of 2% saponin-lysed horse blood, 25.0 μg/ml of NAD and 25.0 μg/ml of hemin (Atherton et al., 1979; “Phosphonopeptides as antibacterial agents: rationale, chemistry, and structure-activity relationships[…]; Antimicrob. Agents Chemother. (1979) 15:677-683). […] All the isolates were prepared at a density equivalent to […] in sterile deionized water using a densitometer (approximately 1.5×10^8 CFU/ml), then diluted to […]. A 1 μl aliquot of each diluted suspension was then placed on dishes with a multispot inoculator to give the recommended final inoculation of 10 000 CFU/spot (Andrews, 2001. “Determination of minimum inhibitory concentrations”; J. Antimicrob. Chemother. 48 Suppl 1:5-16). All the dishes (including the antimicrobial-free controls) were incubated for 22 hours at 37° C. All the tests were carried out on at least two independent replicates in order to examine the reproducibility.
(§2) The bacterial isolates tested all come from international collections, the American Type Culture Collection (ATCC) and the National Collection of Type Cultures (NCTC).

[2] = tested on: Salmonella enteritidis NCTC 6676; conditions: Salmonella enterica, 22 hours at 37° C.
Procedure: as §1, §2

[3] = tested on: Enterococcus faecalis NCTC 775
Procedure: as §1, §2

[4] = tested on: Klebsiella pneumoniae NCTC 9528
Procedure: as §1, §2

[5] = tested on: Pseudomonas aeruginosa NCTC 10662; conditions: NCTC10662, 22 hours at 37° C.
Procedure: as §1, §2

[6] = tested on: Escherichia coli NCTC 12241; conditions: NCTC12241, 22 hours at 37° C.
Procedure: as §1, §2

[7] = tested on: Streptococcus agalactiae NCTC 8181; conditions: NCTC8181, 22 hours at 37° C.
Procedure: as §1, §2

[8] = tested on: Listeria monocytogenes NCTC 11994; conditions: NCTC11994, 22 hours at 37° C.
Procedure: as §1, §2

[9] = tested on: Staphylococcus aureus (MRSA) NCTC 11939; conditions: 22 hours at 37° C.
Procedure: as §1, §2

[10] = tested on: Acinetobacter baumannii ATCC 19606; conditions: ATCC19606, 22 hours at 37° C.
Procedure: as §1, §2

[11] = tested on: Burkholderia cepacia ATCC 25416; conditions: ATCC25416, 22 hours at 37° C.
Procedure: as §1, §2

[12] = tested on: Escherichia coli NCTC 10418; conditions: NCTC10418, 22 hours at 37° C.
Procedure: as §1, §2

[13] = tested on: Providencia rettgeri NCTC 7475; conditions: NCTC7475, 22 hours at 37° C.
Procedure: as §1, §2

[14] = tested on: Salmonella typhimurium NCTC 74; conditions: Salmonella enterica, 22 hours at 37° C.
Procedure: as §1, §2

[15] = tested on: Serratia marcescens NCTC 10211
Procedure: as §1, §2

[16] = tested on: Bacillus subtilis NCTC 9372
Procedure: as §1, §2

[17] = tested on: Staphylococcus epidermidis NCTC 11047; conditions: NCTC11047, 22 hours at 37° C.
Procedure: as §1, §2

[18] = tested on: Staphylococcus aureus (MSSA) NCTC 6571; conditions: 22 hours at 37° C.
Procedure: as §1, §2

[19] = tested on: Enterobacter cloacae NCTC 11936; conditions: NCTC11936, 22 hours at 37° C.
Procedure: as §1, §2

[20] = tested on: Enterococcus faecium NCTC 7171
Procedure: as §1, §2

[21] = tested on: Salmonella enteritidis NCTC 74; conditions: Salmonella enterica, 22 hours at 37° C.
Procedure: as §1, §2

[22] = at very low concentrations, of about 2 mg/l, enterococci

SMILES: C[C@H](NC(=O)[C@@H]1CCC(=O)N1)c1nnn[nH]1 [compound 12, L-pyroglutamyl-L-1-aminoethyltetrazole]
- Growth at various concentrations (mg/l) ([1]; 2 mg/l, Yersinia enterocolitica NCTC 11176): Tr.
- MIC ([1]; NCTC11176, Yersinia enterocolitica NCTC 11176, 22 hours at 37° C.): 4 µg/mL (≈ 17.8 µM)
- antibacterial activity (in words) ([1]; Yersinia enterocolitica): highly inhibitory
- MIC [2]: > 128 µg/mL
- antibacterial activity (in words) ([3]; Enterococcus faecalis): highly inhibitory
- MIC ([3]; NCTC775, Enterococcus faecalis NCTC 775, 22 hours at 37° C.): 2 µg/mL (≈ 8.92 µM)
- inhibition specificity (in words) [3, 22]: excellent inhibition specificity for enterococci
- Growth at various concentrations (mg/l) ([4]; 4 mg/l, Klebsiella pneumoniae NCTC 9528): Tr.
- antibacterial activity (in words) ([4]; Klebsiella pneumoniae): highly inhibitory
- MIC ([4]; NCTC9528, Klebsiella pneumoniae NCTC 9528, 22 hours at 37° C.): 8 µg/mL (≈ 35.7 µM)
- MIC [5]: > 128 µg/mL
- MIC [6]: > 128 µg/mL
- MIC [7]: > 128 µg/mL
- MIC [8]: > 128 µg/mL
- MIC [9]: > 128 µg/mL
- MIC [10]: > 128 µg/mL
- MIC [11]: > 128 µg/mL
- MIC [12]: > 128 µg/mL
- MIC [13]: > 128 µg/mL
- MIC [14]: > 128 µg/mL
- MIC ([15]; NCTC10211, Serratia marcescens NCTC 10211, 22 hours at 37° C.): 8 µg/mL (≈ 35.7 µM)
- antibacterial activity (in words) ([15]; Serratia marcescens): highly inhibitory
- antibacterial activity (in words) ([16]; Bacillus subtilis): highly inhibitory
- MIC ([16]; NCTC9372, Bacillus subtilis NCTC 9372, 22 hours at 37° C.): 64 µg/mL (≈ 285 µM)
- MIC [17]: > 128 µg/mL
- MIC [18]: > 128 µg/mL
- MIC [19]: > 128 µg/mL
- antibacterial activity (in words) ([20]; Enterococcus faecium): highly inhibitory
- MIC ([20]; NCTC7171, Enterococcus faecium NCTC 7171, 22 hours at 37° C.): 2 µg/mL (≈ 8.92 µM)
- inhibition specificity (in words) [20, 22]: excellent inhibition specificity for enterococci
- MIC [21]: > 128 µg/mL
